Results on 17 compounds are retold here after patent publication US8022091B2, “Triazole derivative” (Taisho Pharmaceutical Co., Ltd., priority 2006, dated 2011).

The structures appear in SMILES notation.

One data set concerns the target T1, human Edg-1 (S1P1) (Homo sapiens, UniProt P21453).
T1 construct: expressed in transfected cells; host or cells: HEK-293
The data set can be described thus: S1P1 binding assay: inhibition of [33P]-S1P binding to membrane fraction of HEK-293 cells transferred with the human Edg-1 (S1P1) gene. To be noted: for IC50: [33P]-S1P 0.1 nM, human Edg-1 (S1P1) HEK-293 membrane fraction, 1 h at 30° C., read-out: IC50 (concentration at which binding in the absence of the test compound was inhibited by 50%). The procedure, abridged:
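With 0.1 nM [33P]-S1P and compound (10^−5M single point, or a concentration range for IC50) in 0.1% DMSO, membrane fractions from human Edg-1-expressing HEK-293 cells were treated for one hour at 30° C in 20 mM Tris-HCl pH 7.4 with NaF, deoxypyridoxine and BSA. Bound label was measured after filtration, with untransfected-cell background subtracted.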

Setting [1] is: test compound 10 μM, inhibition of [33P]-S1P binding, membrane fraction.

T1 sequence (P21453 whole entry): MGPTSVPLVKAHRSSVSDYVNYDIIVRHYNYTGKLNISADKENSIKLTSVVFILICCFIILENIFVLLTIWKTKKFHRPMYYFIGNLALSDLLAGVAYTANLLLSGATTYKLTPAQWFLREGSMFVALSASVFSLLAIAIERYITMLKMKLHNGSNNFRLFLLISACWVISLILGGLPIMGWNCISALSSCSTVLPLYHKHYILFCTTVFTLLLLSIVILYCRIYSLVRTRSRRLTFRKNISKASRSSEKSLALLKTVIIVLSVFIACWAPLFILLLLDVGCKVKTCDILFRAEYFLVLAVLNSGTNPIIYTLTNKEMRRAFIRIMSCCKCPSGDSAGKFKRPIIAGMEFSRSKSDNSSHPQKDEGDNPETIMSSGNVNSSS

One may read the inhibition as the change of the read-out against control, counted positive when it falls. A word on the melting point: it is the temperature, or range, at which the solid turns liquid. Regarding `CCn1c(Oc2cccc(N3CCN(C)CC3)c2)nnc1[C@@H](C)NS(=O)(=O)c1ccc2ccc(Cl)cc2c1` [Compound 665], the melting point was in the range of 197 to 201 °C. Besides, the IC50 on human Edg-1 (S1P1) is at most 35 nM. At human Edg-1 (S1P1) (setting [1]), the inhibition at 10 µM was determined as 100%.

For the compound `CCn1c(Oc2cccc(N3CCN(C)CC3)c2)nnc1[C@@H](C)NS(=O)(=O)c1ccc2cccc(Cl)c2c1` [Compound 666], the melting point lay within 143.5 to 144.5 °C. Besides, the IC50 on human Edg-1 (S1P1) is at most 10 nM. Also, the inhibition at 10 µM at human Edg-1 (S1P1) (setting [1]) worked out at 97.9%.

The compound `CCn1c(Oc2cccc(N3CCN(C)CC3)c2)nnc1[C@@H](C)NS(=O)(=O)c1ccc2c(Br)cccc2c1` [Compound 667] registered a melting point of 207 to 208 °C. For the same compound, on human Edg-1 (S1P1), the IC50 was at most 10 nM. Besides, the inhibition at 10 µM at human Edg-1 (S1P1) (setting [1]) is 99.2%.

`CCn1c(Oc2cccc(N3CCN(C(C)C)CC3)c2)nnc1[C@@H](C)NS(=O)(=O)c1ccc2cccc(Cl)c2c1` [Compound 669]: the melting point fell in the range of 131.5 to 132.5 °C. The IC50 on human Edg-1 (S1P1) is at most 10 nM. Also, the inhibition at 10 µM on human Edg-1 (S1P1) (setting [1]) is 100%.

Take `CCn1c(Oc2ccc3cc[nH]c3c2)nnc1[C@@H](C)NS(=O)(=O)c1ccc2cccc(Cl)c2c1` [Compound 670]: the melting point is 214.5 to 218 °C. In addition, at human Edg-1 (S1P1), the IC50 was found to be 5.2 nM. Moreover, the inhibition at 10 µM at human Edg-1 (S1P1) (setting [1]) is 101%.

As for `CCn1c(Oc2ccc(F)c(N3CCN(C)CC3)c2)nnc1[C@@H](C)NS(=O)(=O)c1ccc2c(Cl)cccc2c1` [Compound 680], the melting point is 169.5 to 170.5 °C. In addition, at human Edg-1 (S1P1), the IC50 was 1.4 nM. Further, the inhibition at 10 µM on human Edg-1 (S1P1) (setting [1]) was 100%.

Compound `CCn1c(Oc2ccc(F)c(N3CCN(C)CC3)c2)nnc1[C@@H](C)NS(=O)(=O)c1ccc(Cl)c(Cl)c1` [Compound 681] displayed a melting point of 189 to 189.5 °C. Further, on human Edg-1 (S1P1), the IC50 was at most 10 nM. Besides, the inhibition at 10 µM on human Edg-1 (S1P1) (setting [1]) worked out at 100%.

Consider `CCn1c(Oc2ccc(F)cc2)nnc1C(C)(C)NS(=O)(=O)c1ccc(Cl)c(Cl)c1` [Compound 682], for which the melting point lay in the range of 228 to 228.5 °C. The inhibition at 10 µM at human Edg-1 (S1P1) (setting [1]) turned out to be 76.6%.

Consider `CCn1c(Oc2cccc(N3CCNCC3)c2)nnc1[C@@H](C)NS(=O)(=O)c1ccc(Cl)c(Cl)c1` [Compound 683, 3,4-Dichloro-N-[(R)-1-[4-ethyl-5-(3-piperazin-1-yl-phenoxy)-4H-[1,2,4]triazol-3-yl]-ethyl]-benzenesulfonamide], for which the melting point lay within 175 to 178 °C. At human Edg-1 (S1P1), the IC50 is at most 10 nM. The inhibition at 10 µM on human Edg-1 (S1P1) (setting [1]) came to 100%.

For `CCn1c(Oc2ccc(F)cc2)nnc1C1(NS(=O)(=O)c2ccc(Cl)c(Cl)c2)CC1` [Compound 685], the melting point is 255 to 260 °C. For the same compound, the inhibition at 10 µM at human Edg-1 (S1P1) (setting [1]) stood at 65.1%.

Consider `CCn1c(Oc2cccc(N3CCN(C)CC3)c2)nnc1C1(NS(=O)(=O)c2ccc(Cl)c(Cl)c2)CC1` [Compound 686], for which the melting point is 220.5 to 221 °C. The inhibition at 10 µM on human Edg-1 (S1P1) (setting [1]) was 92.7%.

On to `CCn1c(Oc2cccc(N3CCNCC3)c2)nnc1[C@@H](C)NS(=O)(=O)c1ccc2c(Cl)cccc2c1` [Compound 688], for which the melting point was 192 to 193 °C. At human Edg-1 (S1P1), the IC50 amounted to 1.5 nM. Also, on human Edg-1 (S1P1) (setting [1]), the inhibition at 10 µM came out at 100%.

For the compound `CCn1c(Oc2cccc(N3CCN(C)CC3)c2)nnc1[C@@H](C)NS(=O)(=O)c1ccc2c(I)cccc2c1` [Compound 690], the melting point lay within 198 to 200 °C. On human Edg-1 (S1P1), the IC50 is at most 10 nM. The inhibition at 10 µM on human Edg-1 (S1P1) (setting [1]) came to 102%.

The compound `CCn1c(Oc2cccc(N3CCN(C)CC3)c2)nnc1[C@@H](C)NS(=O)(=O)c1ccc2c(I)cccc2c1` [Compound 691] showed a melting point of 180 to 182 °C. Moreover, at human Edg-1 (S1P1), the IC50 stood at 2.6 nM. Also, on human Edg-1 (S1P1) (test compound 10 μM, inhibition of [33P]-S1P binding, membrane fraction, 10 µM), the “Binding assay (membrane) % inhibition (10 μM)” value came to 98.5%.

Compound `CCn1c(Oc2cccc(N3CCN(C)CC3)c2)nnc1[C@@H](C)NS(=O)(=O)c1ccc2c(C#N)cccc2c1` [Compound 692] yielded a melting point of 227 to 229 °C. Moreover, at human Edg-1 (S1P1), the IC50 was 5.1 nM. Besides, the inhibition at 10 µM at human Edg-1 (S1P1) (setting [1]) came out at 98.5%.

In turn, `CCn1c(Oc2cccc(N3CCN(C)CC3)c2)nnc1[C@@H](C)NS(=O)(=O)c1ccc2c(S(C)(=O)=O)cccc2c1` [Compound 693] came in with a melting point of 158 to 161 °C. In addition, on human Edg-1 (S1P1) (setting [1]), the inhibition at 10 µM came out at 97.7%.

In turn, `CCn1c(Oc2cccc(N3CCN(C)CC3)c2)nnc1[C@@H](C)NS(=O)(=O)c1ccc2c(Cl)ccc(Cl)c2c1` [Compound 694] came in with a melting point of 189 to 191 °C. Besides, the IC50 at human Edg-1 (S1P1) stood at 2.9 nM. For the same compound, the inhibition at 10 µM at human Edg-1 (S1P1) (setting [1]) stood at 106%.
